Measurements: BigSolDB 2.1

Nc1ccc(C(=O)[O-])cc1.[K+]
Settings	solubility (mole fraction)
in DMF, 283.15 K	0.00143
in DMF, 293.15 K	0.00146
in DMF, 303.15 K	0.00153
in DMF, 313.15 K	0.00154
in DMF, 323.15 K	0.00159
in DMF, 333.15 K	0.00161
in ethanol, 283.15 K	0.00224
in ethanol, 293.15 K	0.00232
in ethanol, 303.15 K	0.00238
in ethanol, 313.15 K	0.00244
in ethanol, 323.15 K	0.0025
in ethanol, 333.15 K	0.00252
in ethyl acetate, 283.15 K	0.000198
in ethyl acetate, 293.15 K	0.000205
in ethyl acetate, 303.15 K	0.000211
in ethyl acetate, 313.15 K	0.000216
in ethyl acetate, 323.15 K	0.000219
in ethylene glycol, 283.15 K	0.0973
in ethylene glycol, 293.15 K	0.115
in ethylene glycol, 303.15 K	0.127
in ethylene glycol, 313.15 K	0.145
in ethylene glycol, 323.15 K	0.156
in ethylene glycol, 333.15 K	0.172
in formamide, 283.15 K	0.0794
in formamide, 293.15 K	0.0929
in formamide, 303.15 K	0.104
in formamide, 313.15 K	0.112
in formamide, 323.15 K	0.119
in formamide, 333.15 K	0.125
in isopropanol, 283.15 K	0.000366
in isopropanol, 293.15 K	0.000416
in isopropanol, 303.15 K	0.000486
in isopropanol, 313.15 K	0.000496
in isopropanol, 323.15 K	0.00052
in isopropanol, 333.15 K	0.000556
in n-propanol, 283.15 K	0.000852
in n-propanol, 293.15 K	0.000874
in n-propanol, 303.15 K	0.000884
in n-propanol, 313.15 K	0.000929
in n-propanol, 323.15 K	0.000952
in n-propanol, 333.15 K	0.000981
in water, 278.15 K	0.092
in water, 288.15 K	0.11
in water, 298.15 K	0.125
in water, 308.15 K	0.144
in water, 318.15 K	0.161
in water, 328.15 K	0.177
in water, 338.15 K	0.194
